Results on 16 molecules are retold here after ChEMBL document CHEMBL1132127, “Thrombin inhibitors based on [5,5] trans-fused indane lactams” (Bioorg Med Chem Lett, 1999).

The pIC50 is the IC50 on a negative log10 scale, so that one unit is a factor of ten. Low readings indicate a high IC50, high ones a low IC50. By half-life is commonly meant the time in which the quantity being followed falls by half.

The structures appear in SMILES notation. pIC50: −log10 of the molar value.

Series [1] addresses Serine protease 1 (Homo sapiens, UniProt P07477).
The target in series [2] is Coagulation factor X (Homo sapiens, UniProt P00742).
Description: Inhibition of activated Coagulation factor X
Series [3] has as its target Prothrombin (Homo sapiens, UniProt P00734).
Series [4] is described as follows: Half life time in human plasma. It is filed as ADME, cell-free.

Sequence of Coagulation factor X (P00742 41-179 limits assumed): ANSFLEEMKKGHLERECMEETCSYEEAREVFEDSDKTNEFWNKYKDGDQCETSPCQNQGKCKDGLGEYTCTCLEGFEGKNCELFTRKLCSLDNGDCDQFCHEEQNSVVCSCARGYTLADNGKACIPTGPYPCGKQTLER
Sequence of Coagulation factor X (P00742 235-488 limits assumed): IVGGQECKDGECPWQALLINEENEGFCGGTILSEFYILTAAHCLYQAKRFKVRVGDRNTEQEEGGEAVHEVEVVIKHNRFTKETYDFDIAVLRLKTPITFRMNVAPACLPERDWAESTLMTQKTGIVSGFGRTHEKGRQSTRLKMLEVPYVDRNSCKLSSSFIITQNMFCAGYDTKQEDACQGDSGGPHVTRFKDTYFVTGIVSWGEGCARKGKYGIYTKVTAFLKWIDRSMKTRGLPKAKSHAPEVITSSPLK
Sequence of Serine protease 1 (P07477 whole entry): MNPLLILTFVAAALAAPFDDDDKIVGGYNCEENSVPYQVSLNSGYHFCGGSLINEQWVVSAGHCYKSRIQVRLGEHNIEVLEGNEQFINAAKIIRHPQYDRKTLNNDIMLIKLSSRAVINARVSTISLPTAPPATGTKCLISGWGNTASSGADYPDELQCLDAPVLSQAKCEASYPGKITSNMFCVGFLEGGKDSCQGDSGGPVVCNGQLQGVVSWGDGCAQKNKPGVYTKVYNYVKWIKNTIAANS

As for `COC(=O)CN1C(=O)[C@H](CCCCC(=N)N)[C@H]2c3ccccc3C[C@@H]21`, the pIC50 was less than 3.70 in series [1], less than 3.70 in series [2] and 4.37 in series [3].
With `CCN(CC)C(=O)c1cccc(-c2ccc3c(c2)[C@@H]2[C@@H](CCCCC(=N)N)C(=O)N(C(=O)OC)[C@H]2C3)c1`, the figures for the pIC50 in series [1], in series [2] and in series [3] were 5.66, 5.66 and 7.30, respectively. Moreover, the half-life in series [4] is 1020 min.
`CCN(CC)C(=O)c1cccc(-c2ccc3c(c2)[C@@H]2[C@@H](CCCCC(=N)N)C(=O)N(CCCCCc4ccccc4)[C@H]2C3)c1`: the figures for the negative logarithm of the IC50 (pIC50) in series [1], in series [2] and in series [3] were less than 4.30, less than 4.30 and 5.30, respectively.
With `CCN(CC)C(=O)c1cccc(-c2ccc3c(c2)[C@@H]2[C@@H](CCCCC(=N)N)C(=O)N(S(=O)(=O)c4ccccc4)[C@H]2C3)c1`, the results for the pIC50 in series [1], in series [2] and in series [3] were 7.18, 7.13 and 7.80, respectively.
Take `CC(=O)O[C@@H]1CC[C@]2(C)C3CC[C@@]4(C)[C@H]5[C@@H](C[C@]4(C)C3=CCC2[C@]1(C)C(=O)O)OC(=O)[C@@H]5CC(=O)C=C(C)C` (stereo partly drawn): the pIC50 in series [3] was 5.40.
For the molecule `CCN(CC)C(=O)c1cccc(-c2ccc3c(c2)C[C@H]2[C@H]3[C@@H](CCCCC(=N)N)C(=O)N2C(=O)OCCCc2ccccc2)c1`, the pIC50 was 6.21 in series [1], 5.44 in series [2] and 6.18 in series [3].
In the case of `CCN(CC)C(=O)c1cccc(-c2ccc3c(c2)C[C@H]2[C@H]3[C@@H](CCCCC(=N)N)C(=O)N2CCCCCc2ccccc2)c1`, the pIC50 in series [1] was 5.08; in series [2], 4.59; in series [3] it was 5.30.
As for `CCNC(=O)N1C(=O)[C@H](CCCCC(=N)N)[C@H]2c3cc(-c4cccc(C(=O)N(CC)CC)c4)ccc3C[C@@H]21`, the pIC50 was less than 4.00 in series [1], less than 4.00 in series [2] and 5.52 in series [3].
As for `CCOP(=O)(OCC)N1C(=O)[C@H](CCCCC(=N)N)[C@H]2c3ccc(-c4cccc(C(=O)N(CC)CC)c4)cc3C[C@@H]21`, the pIC50 in series [1] is 5.77; in series [2], 4.70; in series [3] it was 5.49.
With `N=C(N)CCCC[C@H]1C(=O)N[C@H]2Cc3ccccc3[C@@H]21`, the pIC50 in series [1], in series [2] and in series [3] was less than 3.70 throughout. In series [4], this molecule displayed a half-life of more than 1440 min.
For `CCN(CC)C(=O)c1cccc(-c2ccc3c(c2)C[C@H]2[C@H]3[C@@H](CCCCC(=N)N)C(=O)N2C(=O)OC)c1`, the figures for the pIC50 in series [2] and in series [3] were 6.92 and 7.80, respectively. The molecule also had a half-life in series [4] of 1440 min.
As for `N=C(N)CCCC[C@H]1C(=O)N(CCCCCc2ccccc2)[C@H]2Cc3ccccc3[C@H]12`, the pIC50 was 5.01 in series [1], less than 4.00 in series [2] and 4.89 in series [3].
In the same order, the values of `CCN(CC)C(=O)c1cccc(-c2ccc3c(c2)[C@@H]2[C@@H](CCCCC(=N)N)C(=O)N(COC(C)=O)[C@H]2C3)c1` are 4.44, 4.85 and 4.92.
The corresponding values for `CCC(=O)N1C(=O)[C@H](CCCCC(=N)N)[C@H]2c3cc(-c4cccc(C(=O)N(CC)CC)c4)ccc3C[C@@H]21` are 5.08, 5.00 and 6.42.
For the molecule `CCN(CC)C(=O)c1cccc(-c2ccc3c(c2)[C@@H]2[C@@H](CCCCC(=N)N)C(=O)N(C(=O)OCCCc4ccccc4)[C@H]2C3)c1`, the pIC50 in series [1] is 5.64; in series [2] it was 5.43; in series [3] it was 6.89.
In the same order, the values of `CCN(CC)C(=O)c1cccc(-c2ccc3c(c2)[C@@H]2[C@@H](CCCCC(=N)N)C(=O)N(C(=O)N(C)C)[C@H]2C3)c1` are less than 4.70, less than 4.70 and 4.96.
